# Results taken from patent US20180169045A1, “AMINO ACID COMPOSITIONS AND METHODS FOR THE TREATMENT OF LIVER DISEASES” (AXCELLA HEALTH INC., priority 2016, published 2018).
# Assays:
# Assay type in all cases: cell-based
# [1] = tested on: Primary human hepatic stellate cells; experiment: TNFα-induced IL-6 secretion in primary human hepatic stellate cells (ELISA); settings: for IL-6 cytokine secretion, in words: primary human hepatic stellate cells from two donors, 3 ng/mL TNFα, 12 h
# Method: Primary human hepatic stellate cells were obtained from Samsara Sciences based on the following criteria for selecting donors: adult age (between 18 and 50 years), normal BMI (>18.5 and <25), and absence of confounding liver disease. Primary human hepatic stellate cells grown in Complete HSC Medium to ˜80% confluence in T75 or T150 flasks below passage 10 were seeded into sterile, collagen I coated, 96-well optical plastic microplates (ThermoScientific, 152036) at 4000 cells per well ([…]) and incubated for 6 hours at 37° C., 5% CO2 in a humidified incubator.
# After 6 hours, plates were removed from the incubator and the medium gently pipetted off and washed once with 150 μL per well DPBS. The DPBS was removed and the pretreatment medium (±single amino acid dropout, 1×HMDB DMEM+3% dialyzed FBS+0.2% Primocin, ±supplemental amino acid dose; see experiment for medium composition) was applied to the cells at 150 μL per well. Plates were returned to the incubator overnight, ˜14-15 hours.
# After overnight pretreatment, the medium was removed from the cells, and the same pretreatment medium, now supplemented with 3 ng/mL TNFα is applied. Each plate contained 3 ng/mL TNFα in 1× human plasma amino acid (HMDB or PAA) concentration medium, 0 ng/mL in 1×HMDB, and 3 ng/mL TNFα+50 nM Bengamide in 1×HMDB to serve as controls. Plates were incubated for 12 hours at 37° C., 5% CO2.
# After 12 hour stimulus with TNFα, supernatant was removed and frozen at −80° C. in two separate aliquots. Plates were washed gently once with DPBS and 100 μL per well of 1×HMDB DMEM+3% dialyzed FBS+0.2% Primocin+10% CCK-8 viability reagent (Dojindo). Plates were incubated for 1 hour at 37° C., 5% CO2.
# After 1 hour of incubation, viability was measured on the Synergy plate reader (Absorbance at 977 (test), 900 (reference), and 450 (CCK8) nm). Immediately, the medium was removed and the plates were fixed with 70 μL per well 4% paraformaldehyde in PBS at room temperature for 20 minutes, followed by two 150 μL PBS washes, and stored with 100 μL per well PBS at 4° C. until immunofluorescence staining.
# Human CCL2/MCP1 and Human IL-6 were measured by ELISA (Human […] DuoSet ELISA, R&D Systems; Human IL-6 DuoSet ELISA, R&D Systems) at 1/5 and 1/20 dilution in 1× Reagent Diluent (Reagent Ancillary Kit 2, R&D Systems). Data were normalized to the specific per well cell density determined by Hoechst stained nuclei count.
# [2] = tested on: Primary human PMBC derived macrophages; experiment: LPS-induced IL-6 secretion in primary human monocyte-derived macrophages (ELISA); parameters: IL-6 Measurements, Mean: unit not given here; settings: for LPS-induced IL-6 secretion, in words: primary human monocyte-derived macrophages; for IL-6 Measurements, Mean: Donor 1, baseline subtracted values; for IL-6 Measurements Mean (baseline subtracted): Donor 3, LPS 0.15 ng/mL
# Method: (§1) Isolation of Peripheral Blood Mononuclear Cell (PBMC) Unpurified buffy coats (Research Blood Components) were carefully poured into 50 mL centrifuge tubes and diluted with room temperature Dulbecco's Phosphate Buffered Saline (dPBS) with Calcium and Magnesium (Gibco). Diluted buffy coats were further divided into four total 50 mL centrifuge tubes at 20 mL per tube. Lymphocyte Separation Medium (Corning) was carefully pipetted to the bottom of each centrifuge tube. Mixtures were centrifuged at 850×g for 32 minutes at 20° C. with 0 deceleration and acceleration.
# (§2) CD14+ cells were selected using EasySep™ Human CD14 Positive Selection Kit II ([…] Technologies). Cells were resuspended in cold EasySep™ Buffer ([…] Technologies) at 1×10^8 cells/mL. A total of 100 uL/mL EasySep™ Human CD14 Positive Selection Cocktail II was added to the cell suspension, mixed, and incubated at room temperature for 10 minutes. A total of 100 uL/mL RapidSpheres were added to the mixture and incubated at room temperature for 3 minutes after mixing, then RoboSep buffer was added to bring up the total volume to 10 mL. The mixture in a 15 mL tube was placed in magnet and incubated at room temperature for 3 minutes. Supernatant was discarded and 10 mL fresh EasySep™ buffer was added to 15 mL tube. The addition of RoboSep buffer, mixing, and discarding of supernatant was repeated two more times.
# (§3) Negative and positive fractions were centrifuged at 490×g for 5 minutes at 20° C. with acceleration of 9, deceleration of 9, and resuspended in DMEM (Gibco) and 10% Heat Inactivated Fetal Bovine Serum (Atlanta Bio) and Penicillin/Streptomycin. Cells were counted and centrifuged again at 490×g for 5 minutes at 20° C. with acceleration of 9, deceleration of 9. After centrifugation, cell were resuspended in DMEM (Gibco) and 10% Heat Inactivated Fetal Bovine Serum (Atlanta Bio) and Penicillin/Streptomycin containing 500 U/mL […] and plated at 1-2×10^6 cells/mL on 10 cm tissue culture plates. Cells were kept in 37° C., 5% CO2 in between feedings/harvest.
# (§4) Cells were fed every 3-4 days by removing media and unattached cells, centrifuging at 490×g for 5 minutes at 20 C with acceleration of 9, deceleration of 9, and resuspending in fresh DMEM (Gibco) and 10% Heat Inactivated Fetal Bovine Serum (Atlanta Bio) and Penicillin/Streptomycincontaining 500 U/mL GM-CSF. Resuspended cells were seeded back onto 10 cm tissue culture plates and incubated at 37° C., 5% CO2.
# (§5) After complete cell attachment, culture supernatant was removed and cultures were washed 1× with 5 mL PBS. A total of 3 mL room temperature Cellstripper was added and cultures were incubated at 37° C., 5% CO2 for approximately 10 minutes until cells were rounded and beginning to detach. Cell scraper was used to completely detach cells from plate. Collected cell were spun down at 490 g for 5 min at room temperature and resuspended in 10% DMSO in Heat Inactivated Fetal Bovine Serum and immediately frozen in −80 C.
# (§6) Primary human PMBC derived macrophages were seeded on day 0 at 3.0E4 cells per well in 96-well microplates (ThermoFisher) in Dulbecco's Modified Eagle Medium (DMEM) (Gibco) supplemented with penicillin-streptomycin (Hyclone) and 10% heat inactivated fetal bovine serum (HI-FBS) (Atlanta Bio) and incubated overnight at 37° C., 5% CO2. On day 1, cells were washed once with 150 uL per well DPBS (Gibco) and treated with 75 uL of: • a. Amino acid free DMEM (US Biologicals) containing a defined custom amino acid concentration based on the mean physiological concentrations in blood based on values published in the Human Metabolome Database (HMDB), with 6 mM glucose, 1 mM sodium pyruvate, 10 mM HEPES, 0.2% primocin (InVivoGen); or • b. The same medium described above with one amino acid at various concentrations including complete dropout. […]
# [3] = tested on: Primary human PMBC derived macrophages; experiment: LPS-induced TNFa secretion in primary human monocyte-derived macrophages (ELISA); parameters: TNFa Measurements Mean (baseline subtracted): unit not given beside the values; settings: for LPS-induced TNFa secretion, in words: primary human monocyte-derived macrophages
# Method: as §1, §2, §3, §4, §5, §6
smiles,measurement,setting,value
"N=C(N)NCCC[C@H](N)C(=O)O [Arginine, L-Arginine]","IL-6 cytokine secretion, in words",[1],no significant effect
same,"LPS-induced IL-6 secretion, in words","[2]; Donor 1, 0.15 ng/mL LPS",increased
same,TNFa Measurements Mean (baseline subtracted),"[3]; Donor 1, Conc. 109 μM (baseline), LPS 0.15 ng/mL",0
"NC(=O)CC[C@H](N)C(=O)O [Glutamine, L-Glutamine]","Fold Change IL-6 Secretion Normalized Per Cell, Mean","[1]; donor 1, Conc. 749 μM",0.6320
same,"Fold Change IL-6 Secretion Normalized Per Cell, Mean","[1]; donor 1, Conc. 3747 μM",0.5460
same,"Fold Change IL-6 Secretion Normalized Per Cell, Mean","[1]; donor 1, Conc. 11242 μM",0.5136
same,"Fold Change IL-6 Secretion Normalized Per Cell, Mean","[1]; donor 1, Conc. 22484 μM",0.5138
same,"Fold Change IL-6 Secretion Normalized Per Cell, Mean","[1]; donor 2, Conc. 749 μM",0.7673
same,"Fold Change IL-6 Secretion Normalized Per Cell, Mean","[1]; donor 2, Conc. 11242 μM",0.6478
same,"Fold Change IL-6 Secretion Normalized Per Cell, Mean","[1]; donor 2, Conc. 22484 μM",0.5993
same,"IL-6 cytokine secretion, in words",[1],significantly reduced IL-6 secretion in both donors
same,"IL-6 Measurements, Mean",[2]; Conc. 3747 μM,291.5443
same,"IL-6 Measurements, Mean",[2]; Conc. 11242 μM,397.1745
same,"IL-6 Measurements, Mean",[2]; Conc. 22484 μM,440.1437
same,IL-6 Measurements Mean (baseline subtracted),[2]; Conc. 749 μM (baseline),3.79E−14
same,IL-6 Measurements Mean (baseline subtracted),[2]; Conc. 3747 μM,25.35
same,IL-6 Measurements Mean (baseline subtracted),[2]; Conc. 11242 μM,98.4903
same,IL-6 Measurements Mean (baseline subtracted),[2]; Conc. 22484 μM,108.5158
same,"LPS-induced IL-6 secretion, in words","[2]; Donor 1, 0.15 ng/mL LPS",increased
same,"LPS-induced IL-6 secretion, in words","[2]; Donor 2, 0.15 ng/mL LPS",increased
same,"LPS-induced IL-6 secretion, in words","[2]; Donor 3, 0.15 ng/mL LPS",significantly increased
same,TNFa Measurements Mean (baseline subtracted),"[3]; Donor 3, Conc. 749 μM (baseline)",0
same,"LPS-induced TNFa secretion, in words","[3]; Donor 2, 0.15 ng/mL LPS",increased
same,"LPS-induced TNFa secretion, in words","[3]; Donor 3, 0.15 ng/mL LPS",increased
"CC[C@H](C)[C@H](N)C(=O)O [Isoleucine, L-Isoleucine]","Fold Change IL-6 Secretion Normalized Per Cell, Mean","[1]; donor 1, Conc. 1328 μM",1.0233
same,"Fold Change IL-6 Secretion Normalized Per Cell, Mean","[1]; donor 1, Conc. 3320 μM",1.1156
same,"Fold Change IL-6 Secretion Normalized Per Cell, Mean","[1]; donor 1, Conc. 6639 μM",1.0859
same,"Fold Change IL-6 Secretion Normalized Per Cell, Mean","[1]; donor 2, Conc. 1328 μM",1.1020
same,"Fold Change IL-6 Secretion Normalized Per Cell, Mean","[1]; donor 2, Conc. 3320 μM",0.9096
same,"Fold Change IL-6 Secretion Normalized Per Cell, Mean","[1]; donor 2, Conc. 6639 μM",1.1648
same,"IL-6 cytokine secretion, in words",[1],no significant effect
same,"IL-6 Measurements, Mean",[2]; Conc. 1328 μM,25.98
same,"IL-6 Measurements, Mean",[2]; Conc. 3320 μM,−15.8843
same,"IL-6 Measurements, Mean",[2]; Conc. 6639 μM,−218.332
same,IL-6 Measurements Mean (baseline subtracted),[2]; Conc. 66 μM (baseline),−6.69
same,IL-6 Measurements Mean (baseline subtracted),[2]; Conc. 1328 μM,−28.9897
same,IL-6 Measurements Mean (baseline subtracted),[2]; Conc. 6639 μM,−16.3663
same,TNFa Measurements Mean (baseline subtracted),"[3]; Donor 1, Conc. 66 μM (baseline), LPS 0.15 ng/mL",0
same,"LPS-induced TNFa secretion, in words","[3]; Donor 2, 0.15 ng/mL LPS",increased
"CC(C)C[C@H](N)C(=O)O [Leucine, L-Leucine]","Fold Change IL-6 Secretion Normalized Per Cell, Mean","[1]; donor 1, Conc. 3054 μM",1.1762
same,"Fold Change IL-6 Secretion Normalized Per Cell, Mean","[1]; donor 1, Conc. 7635 μM",1.1215
same,"Fold Change IL-6 Secretion Normalized Per Cell, Mean","[1]; donor 1, Conc. 15270 μM",1.0767
same,"Fold Change IL-6 Secretion Normalized Per Cell, Mean","[1]; donor 2, Conc. 3054 μM",1.0011
same,"Fold Change IL-6 Secretion Normalized Per Cell, Mean","[1]; donor 2, Conc. 7635 μM",0.9574
same,"Fold Change IL-6 Secretion Normalized Per Cell, Mean","[1]; donor 2, Conc. 15270 μM",1.0183
same,"IL-6 cytokine secretion, in words",[1],no significant effect
same,"IL-6 Measurements, Mean",[2]; Conc. 3054 μM,244.9743
same,"IL-6 Measurements, Mean",[2]; Conc. 7635 μM,−69.9873
same,"IL-6 Measurements, Mean",[2]; Conc. 15270 μM,84.46
same,"LPS-induced IL-6 secretion, in words","[2]; Donor 2, 0.15 ng/mL LPS",increased
same,TNFa Measurements Mean (baseline subtracted),"[3]; Donor 2, Conc. 153 μM (baseline), LPS 0.15 ng/mL",0
same,"LPS-induced TNFa secretion, in words","[3]; Donor 2, 0.15 ng/mL LPS",increased
